# Experimental data published in patent US20180200257A1, “METHODS FOR THE TREATMENT OF INFLAMMATORY DISORDERS” (Galapagos NV, priority 2015, published 2018).
# System: subjects with moderately to severely active RA who have an inadequate response to methotrexate (MTX)
# Test: Study 1 (add-on to MTX) - DAS28(CRP) scores
# Assay type: in vivo, human
# Design: key to DAS28(CRP) mean CFB (LOCF): change from baseline in DAS28(CRP) score (joints, CRP, 0-100 VAS)
# Method: Double-blind, placebo-controlled add on study in subjects with moderately to severely active RA who have an inadequate response to methotrexate (MTX) (oral or parenteral).
# 595 subjects randomized to one of 6 dose regimens of Compound 1 (dosed as [Compound 1:HCl:3H2O]) (3 dose levels administered either once or twice daily) or placebo on top of each subject's stable dose of MTX.
# Compound 1 (dosed as [Compound 1:HCl:3H2O]) is dosed for twelve weeks once daily (q.d.) (50 mg, 100 mg or 200 mg) or twice daily (b.i.d.) (25 mg, 50 mg or 100 mg); or placebo.
# At Week 12, the subjects on placebo who have not achieved 20% improvement in swollen joint count (SJC66) and tender joint count (TJC68) are re-randomized automatically to receive Compound 1 (dosed as a [Compound 1:HCl:3H2O]) either at 100 mg q.d. or 50 mg b.i.d. doses in a blinded fashion; subjects on 50 mg q.d. who have not achieved 20% improvement in SJC66 and TJC68 will be assigned to 100 mg q.d. and subjects on 25 mg b.i.d. that have not achieved a 20% improvement in SJC66 and TJC68 will be assigned to 50 mg b.i.d. Subjects who switch treatment at week 12 are handled as if they discontinued at week 12 for the purpose of statistical analysis, whereas subjects in the other groups will maintain their randomized treatment until Week 24.
# The (DAS28(CRP)) is a system developed and validated by the European League Against Rheumatism (EULAR) to measure the progress and improvement of rheumatoid arthritis and has been extensively validated (Wells et al., 2008). The DAS28(CRP) scoring includes a 28 tender and swollen joint count, CRP measurement from blood analysis, and a general health assessment on a visual analog scale (Fransen et al., 2003).
# DAS28(CRP) values range from 2.0 to 10.0, and more particularly reflect the following status: • Remission: DAS28(CRP) ≤2.6 • Low Disease activity: 2.6 <DAS28(CRP) ≤3.2 • Moderate Disease Activity: 3.2 <DAS28(CRP) ≤5.1 • High Disease Activity: DAS28(CRP) >5.1
# In practice, the DAS28(CRP) measurement involves the evaluation 28 different joints including in the measurement (proximal interphalangeal joints (10 joints), metacarpophalangeal joints (10), wrists (2), elbows (2), shoulders (2), and knees (2)). When looking at these joints, both the number of joints with tenderness upon touching and swelling are counted.
# Secondly, C-reactive protein level is measured.
# Finally, the patient makes a subjective assessment of disease activity during the preceding 7 days on a scale between 0 and 100, where 0 is “no activity” and 100 is “highest activity possible”.
# The DAS28(CRP) score is then calculated as follows:
# Firstly, the patient is asked to make a vertical mark on a 100 mm Visual Analog Scale (VAS) corresponding to their general health or global disease activity on a touch screen to measure the VAS value, which is used in the formula below.
# Secondly, a swollen and tender joint examination is then performed on the patient. The swollen and tender joints are recorded. From this examination are obtained the total amount of swollen joints (SJC) and the total amount of tender joints (TJC), which are used in the formula below.
# Thirdly, C-reactive protein (CRP) levels are measured.
# Finally, the values obtained above (VAS, TJC28, SJC28, and CRP) are computed into the following Formula to obtain the DAS28(CRP) score.
# DAS28(CRP)=0.56*√{square root over (TJC28)}+0.28√{square root over (SJC28)}+[…] ln(CRP+1)+0.014*VAS
# The improvement (decreases) in the DAS28(CRP) scores for each patient group at weeks 1, 2, 4, 8 and 12 is shown in Table LXXXVII and Table LXXXVIII below, together with the Hommel-corrected p-value for the pairwise comparisons of each group with placebo.
# The number of subjects (N) provided in each groups corresponds to the number of subjects starting the study in each group, and the DAS28 (CRP) data reported below corresponds to the responding subjects continuing for the entire 24 weeks on their initial treatment course.
smiles,measurement,setting,value
"O=C(Nc1nc2cccc(-c3ccc(CN4CCS(=O)(=O)CC4)cc3)n2n1)C1CC1 [Compound 1, cyclopropanecarboxylic acid {5-[4-(1,1-dioxo-thiomorpholin-4-ylmethyl)-phenyl]-[1,2,4]triazolo[1,5-a]pyridin-2-yl}-amide]",DAS28(CRP) mean CFB (LOCF),"50 mg q.d., week 1, 12 weeks results",−0.65
same,DAS28(CRP) mean CFB (LOCF),"50 mg q.d., week 1, 24 weeks results",−0.65
same,DAS28(CRP) mean CFB (LOCF),"50 mg q.d., week 2, 12 weeks results",−0.94
same,DAS28(CRP) mean CFB (LOCF),"50 mg q.d., week 2, 24 weeks results",−0.94
same,DAS28(CRP) mean CFB (LOCF),"50 mg q.d., week 4, 12 weeks results",−1.28
same,DAS28(CRP) mean CFB (LOCF),"50 mg q.d., week 4, 24 weeks results",−1.28
same,DAS28(CRP) mean CFB (LOCF),"50 mg q.d., week 12, 12 weeks results",−1.75
same,DAS28(CRP) mean CFB (LOCF),"50 mg q.d., week 12, 24 weeks results",−1.75
same,DAS28(CRP) mean CFB (LOCF),"50 mg q.d., week 16, 24 weeks results",−1.91
same,DAS28(CRP) mean CFB (LOCF),"50 mg q.d., week 20, 24 weeks results",−1.99
same,DAS28(CRP) mean CFB (LOCF),"50 mg q.d., week 24, 24 weeks results",−1.98
same,% patients reaching low disease activity and/or remission at week 12 (LOCF),"50 mg q.d., 12 weeks results",24%
same,% patients reaching low disease activity at week 12 (LOCF),"50 mg q.d., 12 weeks results",12%
same,% patients reaching remission at week 12 (LOCF),"50 mg q.d., 12 weeks results",12%
same,% patients reaching low disease activity and/or remission at week 24 (LOCF),"50 mg q.d., 24 weeks results",33%
same,% patients reaching low disease activity at week 24 (LOCF),"50 mg q.d., 24 weeks results",12%
same,% patients reaching remission at week 24 (LOCF),"50 mg q.d., 24 weeks results",21%
same,DAS28(CRP) mean CFB (LOCF),"50 mg q.d., week 8, 12 weeks results",−1.66
same,DAS28(CRP) mean CFB (LOCF),"50 mg q.d., week 8, 24 weeks results",−1.66
same,DAS28(CRP) mean CFB (LOCF),"100 mg q.d., week 1, 12 weeks results",−1.01
same,DAS28(CRP) mean CFB (LOCF),"100 mg q.d., week 1, 24 weeks results",−1.00
same,DAS28(CRP) mean CFB (LOCF),"100 mg q.d., week 2, 12 weeks results",−1.50
same,DAS28(CRP) mean CFB (LOCF),"100 mg q.d., week 2, 24 weeks results",−1.51
same,DAS28(CRP) mean CFB (LOCF),"100 mg q.d., week 4, 12 weeks results",−1.88
same,DAS28(CRP) mean CFB (LOCF),"100 mg q.d., week 4, 24 weeks results",−1.89
same,DAS28(CRP) mean CFB (LOCF),"100 mg q.d., week 8, 24 weeks results",−2.13
same,DAS28(CRP) mean CFB (LOCF),"100 mg q.d., week 12, 12 weeks results",−2.21
same,DAS28(CRP) mean CFB (LOCF),"100 mg q.d., week 12, 24 weeks results",−2.23
same,DAS28(CRP) mean CFB (LOCF),"100 mg q.d., week 16, 24 weeks results",−2.51
same,DAS28(CRP) mean CFB (LOCF),"100 mg q.d., week 20, 24 weeks results",−2.65
same,DAS28(CRP) mean CFB (LOCF),"100 mg q.d., week 24, 24 weeks results",−2.70
same,% patients reaching low disease activity and/or remission at week 12 (LOCF),"100 mg q.d., 12 weeks results",34%
same,% patients reaching low disease activity at week 12 (LOCF),"100 mg q.d., 12 weeks results",13%
same,% patients reaching remission at week 12 (LOCF),"100 mg q.d., 12 weeks results",21%
same,% patients reaching low disease activity and/or remission at week 24 (LOCF),"100 mg q.d., 24 weeks results",51%
same,% patients reaching low disease activity at week 24 (LOCF),"100 mg q.d., 24 weeks results",14%
same,% patients reaching remission at week 24 (LOCF),"100 mg q.d., 24 weeks results",36%
same,DAS28(CRP) mean CFB (LOCF),"100 mg q.d., week 8, 12 weeks results",−2.12
same,DAS28(CRP) mean CFB (LOCF),"200 mg q.d., week 1, 12 weeks results",−1.17
same,DAS28(CRP) mean CFB (LOCF),"200 mg q.d., week 1, 24 weeks results",−1.17
same,DAS28(CRP) mean CFB (LOCF),"200 mg q.d., week 2, 12 weeks results",−1.52
same,DAS28(CRP) mean CFB (LOCF),"200 mg q.d., week 2, 24 weeks results",−1.52
same,DAS28(CRP) mean CFB (LOCF),"200 mg q.d., week 4, 12 weeks results",−1.92
same,DAS28(CRP) mean CFB (LOCF),"200 mg q.d., week 4, 24 weeks results",−1.92
same,DAS28(CRP) mean CFB (LOCF),"200 mg q.d., week 8, 24 weeks results",−2.31
same,DAS28(CRP) mean CFB (LOCF),"200 mg q.d., week 12, 12 weeks results",−2.49
same,DAS28(CRP) mean CFB (LOCF),"200 mg q.d., week 12, 24 weeks results",−2.47
same,DAS28(CRP) mean CFB (LOCF),"200 mg q.d., week 16, 24 weeks results",−2.70
same,DAS28(CRP) mean CFB (LOCF),"200 mg q.d., week 20, 24 weeks results",−2.86
same,DAS28(CRP) mean CFB (LOCF),"200 mg q.d., week 24, 24 weeks results",−2.80
same,% patients reaching low disease activity and/or remission at week 12 (LOCF),"200 mg q.d., 12 weeks results",37%
same,% patients reaching low disease activity at week 12 (LOCF),"200 mg q.d., 12 weeks results",15%
same,% patients reaching remission at week 12 (LOCF),"200 mg q.d., 12 weeks results",22%
same,% patients reaching low disease activity and/or remission at week 24 (LOCF),"200 mg q.d., 24 weeks results",51%
same,% patients reaching low disease activity at week 24 (LOCF),"200 mg q.d., 24 weeks results",26%
same,% patients reaching remission at week 24 (LOCF),"200 mg q.d., 24 weeks results",26%
same,DAS28(CRP) mean CFB (LOCF),"200 mg q.d., week 8, 12 weeks results",−2.30
